Laboratory results as given in ChEMBL document CHEMBL4477199, “Design and synthesis of novel bicalutamide and enzalutamide derivatives as antiproliferative agents for the treatment of prostate cancer” (Eur J Med Chem, 2016).

Experiments:
CWR22R [1] = experiment: Antiproliferative activity against human 22Rv1 cells after 96 hrs by propidium iodide staining based fluorescence 2D monolayer assay; assay type: functional, cell-based; settings: 22Rv1, 96 h
DU-145 [2] = experiment: Antiproliferative activity against human DU145 cells after 96 hrs by propidium iodide staining based fluorescence 2D monolayer assay; assay type: functional, cell-based; settings: DU-145, 96 h
LNCaP [3] = experiment: Antiproliferative activity against human LNCAP cells after 96 hrs by propidium iodide staining based fluorescence 2D monolayer assay; assay type: functional, cell-based
VCaP [4] = experiment: Antiproliferative activity against human VCaP cells after 96 hrs by propidium iodide staining based fluorescence 2D monolayer assay; assay type: functional, cell-based
LNCaP [5] = experiment: Potency index, ratio of enzalutamide IC50 to compound IC50 for human LNCAP cells; assay type: functional
[6] = target: T1, Androgen receptor (Rattus norvegicus) (UniProt P15207); experiment: (§1) Antagonist activity at rat androgen receptor fused with DNA-binding domain of GAL4 expressed in AR-UAS-bla GripTite 293 cells assessed as inhibition of R1881-induced receptor activation preincubated for 30 mins followed by R1881 addition measured after 16 to 24 hrs by betalactamase reporter gene assay; assay type: cell-based
T1 sequence (whole entry): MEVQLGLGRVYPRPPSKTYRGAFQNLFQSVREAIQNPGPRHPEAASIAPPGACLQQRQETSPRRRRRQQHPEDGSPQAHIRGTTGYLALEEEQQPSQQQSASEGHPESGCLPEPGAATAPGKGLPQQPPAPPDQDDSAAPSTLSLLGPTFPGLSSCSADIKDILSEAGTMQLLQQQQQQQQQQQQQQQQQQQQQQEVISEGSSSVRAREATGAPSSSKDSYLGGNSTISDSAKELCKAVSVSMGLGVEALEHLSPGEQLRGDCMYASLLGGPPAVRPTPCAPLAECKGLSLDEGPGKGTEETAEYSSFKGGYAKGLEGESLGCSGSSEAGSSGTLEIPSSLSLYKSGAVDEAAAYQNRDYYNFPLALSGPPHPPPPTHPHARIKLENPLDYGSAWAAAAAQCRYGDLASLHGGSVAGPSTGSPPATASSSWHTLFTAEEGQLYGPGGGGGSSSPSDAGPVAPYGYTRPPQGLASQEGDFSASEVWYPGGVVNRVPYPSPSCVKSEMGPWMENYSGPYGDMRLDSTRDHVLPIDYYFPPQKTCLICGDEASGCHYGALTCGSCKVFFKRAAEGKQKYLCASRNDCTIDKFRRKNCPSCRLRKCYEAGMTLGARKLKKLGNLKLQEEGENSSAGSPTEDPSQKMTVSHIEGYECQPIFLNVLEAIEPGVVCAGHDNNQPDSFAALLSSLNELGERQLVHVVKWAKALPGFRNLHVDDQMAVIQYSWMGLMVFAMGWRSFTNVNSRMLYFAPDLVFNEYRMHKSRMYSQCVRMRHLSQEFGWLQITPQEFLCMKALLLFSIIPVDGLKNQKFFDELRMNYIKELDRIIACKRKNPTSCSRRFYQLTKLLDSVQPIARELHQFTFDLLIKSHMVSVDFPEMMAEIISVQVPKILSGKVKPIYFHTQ

Androgen receptor = target: T2, Androgen receptor (Rattus norvegicus, UniProt P15207); experiment: as §1; assay type: cell-based
T2 sequence (P15207 whole entry): T1 sequence (whole entry)

LNCaP [7] = experiment: Antiproliferative activity against human LNCAP cells assessed as relative inhibition after 96 hrs by propidium iodide staining based fluorescence 2D monolayer assay; assay type: functional, cell-based
DU-145 [8] = experiment: Antiproliferative activity against human DU145 cells assessed as relative inhibition after 96 hrs by propidium iodide staining based fluorescence 2D monolayer assay; assay type: functional, cell-based; settings: DU-145, 96 h
CWR22R [9] = experiment: Antiproliferative activity against human 22Rv1 cells assessed as relative inhibition after 96 hrs by propidium iodide staining based fluorescence 2D monolayer assay; assay type: functional, cell-based; settings: 22Rv1, 96 h
VCaP [10] = experiment: Antiproliferative activity against human VCaP cells assessed as relative inhibition after 96 hrs by propidium iodide staining based fluorescence 2D monolayer assay; assay type: functional, cell-based
[11] = 96 h
Description: Solubility in RPMI1640 culture medium at <30 uM incubated for 4 days by microscopic analysis

[12] = 33000 µM
Description: Solubility in 100% DMSO at 33 mM at -20 degC

CC1(C)C(=O)N(c2ccc(C(F)(F)F)cc2)C(=O)N1c1ccc([N+](=O)[O-])c(C(F)(F)F)c1
IC50 (CWR22R [1]): ≥ 100 µM
IC70 (CWR22R [1]): > 100 µM
IC50 (DU-145 [2]): ≥ 100 µM
IC70 (DU-145 [2]): > 100 µM
IC50 (LNCaP [3]): 2.12 µM
IC70 (LNCaP [3]): 9.64 µM
IC50 (VCaP [4]): 73.1 µM
IC70 (VCaP [4]): > 100 µM
Ratio IC50 (LNCaP [5]): <=5
inhibition [6]: Dose-dependent effect
IC50 (Androgen receptor): 0.0803 µM
IC50 (LNCaP [7]): 1.64 µM
IC70 (LNCaP [7]): 7.89 µM
IC50 (DU-145 [8]): > 100 µM
IC70 (DU-145 [8]): > 100 µM
IC50 (CWR22R [9]): 41.6 µM
IC70 (CWR22R [9]): > 100 µM
IC50 (VCaP [10]): 0.053 µM
IC70 (VCaP [10]): 7.76 µM
solubility [11]: Soluble
solubility [12]: Soluble
